Assays:
NCI-H322M = settings: 48 hours, five 10-fold dilutions starting from 100 μM
OVCAR-8 [1] = settings: 48 hours, five 10-fold dilutions starting from 100 μM
SNB-75 [2] = experiment: cells; settings: Homo sapiens, SNB-75, 48 h
SN12C [3] = settings: 48 hours, five 10-fold dilutions starting from 100 μM
SNB-75 [4] = settings: 48 hours, five 10-fold dilutions starting from 100 μM
OVCAR-4 [5] = experiment: cells; settings: Homo sapiens, OVCAR-4, 48 h
NCI-H23 = experiment: cells; settings: Homo sapiens, NCI-H23, 48 h
IGROV1 [6] = experiment: cells; settings: Homo sapiens, IGROV-1, 48 h
HT29 [7] = experiment: cells; settings: Homo sapiens, HT-29, 48 h
T-47D = experiment: cells; settings: Homo sapiens, T47D, 48 h
IGROV1 [8] = settings: 48 hours, five 10-fold dilutions starting from 100 μM
OVCAR-3 = settings: 48 hours, five 10-fold dilutions starting from 100 μM
SF-268 = settings: 48 hours, five 10-fold dilutions starting from 100 μM
UACC-62 = experiment: cells; settings: Homo sapiens, UACC-62, 48 h
786-0 = experiment: cells; settings: Homo sapiens, 786-0, 48 h
K-562 = experiment: NCI screen antiproliferative activity, sulforhodamine B, Leukemia panel; format: cell-based, human; settings: five 10-fold dilutions starting from 100 μM
HOP-62 [9] = settings: 48 hours, five 10-fold dilutions starting from 100 μM
NCI-ADR-RES [10] = experiment: cells; settings: Homo sapiens, 48 h
SK-MEL-28 = settings: 48 hours, five 10-fold dilutions starting from 100 μM
HS 578T = experiment: NCI screen antiproliferative activity, sulforhodamine B, Breast Cancer panel; format: cell-based, human; settings: 48 hours, five 10-fold dilutions starting from 100 μM
M14 = experiment: cells; settings: Homo sapiens, M14, 48 h
NCI-ADR-RES [11] = settings: 48 hours, five 10-fold dilutions starting from 100 μM
HT29 [12] = settings: 48 hours, five 10-fold dilutions starting from 100 μM
UACC-257 = experiment: cells; settings: Homo sapiens, UACC-257, 48 h
MOLT-4 = experiment: NCI screen antiproliferative activity, sulforhodamine B, Leukemia panel; format: cell-based, human; settings: 48 hours, five 10-fold dilutions starting from 100 μM
RXF 393 = experiment: cells; settings: Homo sapiens, RXF 393, 48 h
OVCAR-8 [13] = experiment: cells; settings: Homo sapiens, OVCAR-8, 48 h
OVCAR-4 [14] = settings: 48 hours, five 10-fold dilutions starting from 100 μM
MDA-MB-231/ATCC [15] = settings: 48 hours, five 10-fold dilutions starting from 100 μM
BT-549 = settings: 48 hours, five 10-fold dilutions starting from 100 μM
HCC-2998 = experiment: cells; settings: Homo sapiens, HCC 2998, 48 h
MDA-MB-231/ATCC [16] = experiment: cells; settings: Homo sapiens, MDA-MB-231, 48 h
COLO 205 = experiment: NCI screen antiproliferative activity, sulforhodamine B, Colon Cancer panel; format: cell-based, human; settings: 48 hours, five 10-fold dilutions starting from 100 μM
CAKI-1 = experiment: cells; settings: Homo sapiens, CAKI-1, 48 h
DU-145 [17] = settings: 48 hours, five 10-fold dilutions starting from 100 μM
DU-145 [18] = experiment: cells; settings: Homo sapiens, DU-145, 48 h
NCI-H522 = settings: 48 hours, five 10-fold dilutions starting from 100 μM
NCI-H226 = experiment: cells; settings: Homo sapiens, NCI-H226, 48 h
HOP-62 [19] = experiment: cells; settings: Homo sapiens, HOP-62, 48 h
SF-539 = settings: 48 hours, five 10-fold dilutions starting from 100 μM
ACHN = experiment: cells; settings: Homo sapiens, 48 h
SN12C [20] = experiment: cells; settings: Homo sapiens, 48 h
PC-3 = experiment: cells; settings: Homo sapiens, PC-3, 48 h

CCCCCCCCNCCC[C@@H](C)[C@H]1CC[C@H]2[C@@H]3[C@H](OCCCN)C[C@@H]4C[C@H](OCCCN)CC[C@]4(C)[C@H]3C[C@H](OCCCN)[C@]12C [CSA-13]
TGI (NCI-H322M): 9.31 µM | TGI (OVCAR-8 [1]): 4.01 µM | GI50 (SNB-75 [2]): 1.76 µM | CC50 (SNB-75 [2]; read-out: LC50): 57.2 µM | TGI (SN12C [3]): 3.55 µM | TGI (SNB-75 [4]): 5.93 µM | GI50 (OVCAR-4 [5]): 5.51 µM | CC50 (OVCAR-4 [5]; read-out: LC50): 83 µM | GI50 (NCI-H23): 1.24 µM | CC50 (NCI-H23; read-out: LC50): 7.87 µM | GI50 (IGROV1 [6]): 1.44 µM | CC50 (IGROV1 [6]; read-out: LC50): 8.67 µM | GI50 (HT29 [7]): 1.11 µM | CC50 (HT29 [7]; read-out: LC50): 34 µM | GI50 (T-47D): 1.92 µM | CC50 (T-47D; read-out: LC50): > 100 µM | TGI (IGROV1 [8]): 3.54 µM | TGI (OVCAR-3): 14.8 µM | TGI (SF-268): 3.70 µM | GI50 (UACC-62): 0.482 µM | CC50 (UACC-62; read-out: LC50): 9.43 µM | GI50 (786-0): 0.837 µM | CC50 (786-0; read-out: LC50): 5.4 µM | TGI (K-562; 48 hours): 2.47 µM | GI50 (K-562; Homo sapiens, K562, 48 hours): 1.04 µM | TGI (HOP-62 [9]): 2.96 µM | GI50 (NCI-ADR-RES [10]): 1.83 µM | CC50 (NCI-ADR-RES [10]; read-out: LC50): 36.5 µM | TGI (SK-MEL-28): 1.27 µM | TGI (HS 578T): 2.35 µM | GI50 (HS 578T; Homo sapiens): 0.854 µM | GI50 (M14): 1.18 µM | CC50 (M14; read-out: LC50): 12.6 µM | TGI (NCI-ADR-RES [11]): 5.33 µM | TGI (HT29 [12]): 5.31 µM | GI50 (UACC-257): 2.71 µM | CC50 (UACC-257; read-out: LC50): 97.9 µM | TGI (MOLT-4): 2.93 µM | GI50 (MOLT-4; Homo sapiens): 1.25 µM | GI50 (RXF 393): 1.54 µM | CC50 (RXF 393; read-out: LC50): > 100 µM | GI50 (OVCAR-8 [13]): 1.64 µM | CC50 (OVCAR-8 [13]; read-out: LC50): 9.82 µM | TGI (OVCAR-4 [14]): 25.2 µM | TGI (MDA-MB-231/ATCC [15]): 4.08 µM | TGI (BT-549): 3.28 µM | GI50 (HCC-2998): 1.51 µM | CC50 (HCC-2998; read-out: LC50): 13.3 µM | GI50 (MDA-MB-231/ATCC [16]): 0.422 µM | CC50 (MDA-MB-231/ATCC [16]; read-out: LC50): > 100 µM | TGI (COLO 205): 3.02 µM | GI50 (COLO 205; Homo sapiens): 1.27 µM | GI50 (CAKI-1): 2.05 µM | CC50 (CAKI-1; read-out: LC50): 68 µM | TGI (DU-145 [17]): 2.35 µM | GI50 (DU-145 [18]): 1.14 µM | CC50 (DU-145 [18]; read-out: LC50): 4.85 µM | TGI (NCI-H522): 10.5 µM | GI50 (NCI-H226): 2.22 µM | CC50 (NCI-H226; read-out: LC50): 66.8 µM | GI50 (HOP-62 [19]): 0.806 µM | CC50 (HOP-62 [19]; read-out: LC50): 9.74 µM | TGI (SF-539): 1.41 µM | GI50 (ACHN): 1.48 µM | CC50 (ACHN; read-out: LC50): 9.17 µM | GI50 (SN12C [20]): 0.571 µM | CC50 (SN12C [20]; read-out: LC50): 27 µM | GI50 (PC-3): 3.74 µM | CC50 (PC-3; read-out: LC50): > 100 µM

Source: patent US9943529B2, “Methods for reducing cellular proliferation and treating certain diseases” (BRIGHAM YOUNG UNIVERSITY, priority 2013, dated 2018)
